Data set [1] can be described thus: Turbidity of surfactant/lipid compositions, formation of macromolecular complexes (Example 1). Format: physicochemical. The conditions noted are these: 2.5% surfactant, 1% 90H lipid, ca. 0.01% S LPC co-surfactant (as 0.05% SL 80-3) in water, room temperature. On the procedure:
Briefly, to the appropriate volume of warm water (ca. 60° C.), SL 80-3 was added. […] 90H was then added gradually, with heating and stirring maintained throughout and for a further 45 minutes after completion.
After mixing the solution was stirred and heated to around 60-70° C.
The required quantity of warm lipid emulsion was slowly added to the warm surfactant solution while stirring with the temperature maintained.

The nature of data set [2]: Appearance of aqueous gel preparations (Examples 10 and 11). Format: physicochemical. The conditions noted are these: Example 11: TECA and VC-P solutions mixed with Blanose 7HF gel with Nipaguard DMDMH. The method, then:
A stock solution of surfactant, co-surfactant, lipid and active agent was initially prepared in water at double the desired final concentration. Briefly, co-surfactant, lipid and active agent were dissolved in ethanol, while heating (approximately 30° C.) and stirring. Surfactant material was then added whilst maintaining heat and stir conditions. Ethanol was subsequently removed via rotary evaporation and the resulting dry material was then resolubilized in water with warming (ca. 50° C.) at double the desired final concentration.
Nipaguard PDU was dissolved into water while heating (approximately 30° C.) and stirring. Blanose® 7HF was then added until a uniform gel was formed.
Solution A and Solution B were then mixed in equal volumes to produce the final preparation.
A stock solution of surfactant, co-surfactant, lipid and active agent was initially prepared. Briefly, co-surfactant, lipid and active agent were dissolved in ethanol, while heating (approximately 30° C.) and stirring. Surfactant material was then added whilst maintaining heat and stir conditions. Ethanol was subsequently removed via rotary evaporation and the resulting dry material was then resolubilized in water with warming (ca. 50° C.) at four times the desired final concentration.
A stock solution of surfactant, co-surfactant, lipid and active agent was initially prepared. […]

For data set [3] the following is noted: cited from earlier work; for Average HLB: rough average of manufacturer and literature values.
Data set [4] can be described thus: Reconstitution of dried (freeze-dried or rotary evaporated) formulations in water. Format: physicochemical. The conditions noted are these: rotary evaporated Brij 35P/90H/SL 80-3/progesterone composition. An excerpt:
Of those samples which were dried, all were easily reconstituted into water at the same concentration as prior to drying.
Reconstitution of the freeze-dried composition containing Brij 35P (2.5%), 90H (1%), SL 80-3 (0.05%) and TECA (0.8%), indicated in the table above by #, was successful at a concentration of 32.4% by dry weight (i.e. an overall concentration of 6% active in the final aqueous solution).
The rotary evaporated composition containing Brij 35P (2.5%), 90H (1%), SL 80-3 (0.05%) and progesterone (0.1%), indicated in the table above by t, was reconstituted in water to provide a clear and colourless solution with a progesterone concentration of 0.25% (i.e. 2500 ug/ml, 2.7% progesterone by dry weight).

The conditions of data set [5]: cited from earlier work.
The conditions of data set [6]: lipid 90H 1.0%, co-surf. S LPC ca. 0.01% (as SL 80-3 0.05%).
Method: A stock emulsion of co-surfactant, lipid and active agent was prepared at double the desired final concentration. Co-surfactant was dissolved in water while heating (approximately 60° C.) and stirring, with the conditions maintained for approximately 15 further minutes before the mixture was homogenised (approximately 1 minute at 13,000 RPM, POLYTRON PT 3100 Homogeniser). Lipid was then added gradually, followed by continued stirring and heating until a uniform emulsion is formed. After approximately 45 minutes the mixture was then homogenised (approximately 3 minute at 15,000 RPM). The temperature was then brought to around 50° C. before the active component was added slowly under stirring until a uniform emulsion was present. The final emulsion was then homogenised (approximately 1 minute, ULTRA-TURRAX®-Janke & Kunkel).
A stock solution of surfactant was prepared at double (i.e. 5%) the desired final concentration of 2.5%, by mixing of the surfactant with the appropriate volume of water.
Macromolecular complexes incorporating active agents were then prepared by the dropwise addition of the warm lipid containing emulsion to an equal volume of surfactant solution while stirring and heating 50° C.
Samples were then allowed to cool to room temperature before being analyzed.
For a quantitative analysis of the clarity of aqueous solutions of surfactant, lipid and active, samples were examined using a turbidity meter (Nephla, from Hach-Lange). The turbidity meter was calibrated prior to use, with two known standards (0 and 40 FNU).
Data set [7] in a line: Solubilisation of piroctone olamine in compositions of the invention (Example 7). It counts as physicochemical. The conditions noted are these: dried material (15 g Brij 35P, 6 g 90H, 0.3 g SL 80-3, 4.8 g active) re-solubilized into 50 g of water. On the procedure: Macromolecular assemblies of the present invention which incorporated piroctone olamine were prepared in isopropanol using a method analogous to that described in Example 6 (in that case using ethanol solvent), before being dried by rotary evaporation. The dried material having the composition: • Surfactant—15 g Brij 35P • Lipid—6 g 90H • Co-surfactant (indirectly)—0.3 g SL 80-3 • Active agent—4.8 g piroctone olamine • i.e. total piroctone olamine by weight=18.4%
The dried material was then re-solubilized into 50 g of water to provide a concentrated solution (i.e. using the present invention enables aqueous formulations containing at least 9.6% piroctone olamine by weight to be prepared).

For data set [8] the following is noted: cited from earlier work. This is another data set of the same source.
[9] abbreviates: Surf. Brij 35P 2.5%, active agent 0.10%.
The mark [10] stands for this setting: Surf. Volpo L23 2.5%, active agent 0.25%.
Setting [11] is: Surf. Brij 35P 2.5%, active agent 0.25%.

Read-outs that look alike come from different tables or passages of the source. Marks after values point to notes of the source that are not given here. Starred links: 1 amine or outer side, 2 acyl side, 3 side chain; linkers in the order of their positions; H or OH if unused. Positions of bridges follow the written chain, without caps; N, C: chain ends. Non-standard residues stand in square brackets, D forms with d. Residues, ends and D or L forms follow the SMILES beside them. X1 = CC(C)CCCCCCCCC[C@H](CC(=O)[*:1])O[*:2] A value given as a limit tells only on which side of the number the result lay.

For the compound `C[C@H](CCC(=O)[O-])[C@H]1CC[C@H]2[C@@H]3[C@H](O)C[C@@H]4C[C@H](O)CC[C@]4(C)[C@H]3C[C@H](O)[C@]12C.[Na+]` [Sodium cholate], in data set [1], the “Average Turbidity” value is 23.3 FNU.

As for `O=C(O)c1ccccc1O` [Salicylic Acid, 2-Hydroxybenzoic acid], the “Average Turbidity” value in data set [1] was over 150 FNU.

On to vitamin C dipalmitate [VC-P], for which the “Appearance of cosmetic gel preparation” value in data set [2] is “clear and colourless aqueous gel”.

For `O=C(O)c1ccccc1` [Benzoic Acid, Benzoic acid], the “Average Turbidity” value in data set [1] was over 150 FNU.

For the compound Laureth-9 [P9641], the “Average Turbidity” value in data set [1] is listed as over 150 FNU. In data set [3], the “Average HLB” value is 13.3.

On to `CCCCCCCCCCCC(=O)O` [Lauric Acid, Dodecanoic acid], for which the “Average Turbidity” value in data set [1] is over 150 FNU.

For the compound `CC(=O)[C@H]1CC[C@H]2[C@@H]3CCC4=CC(=O)CC[C@]4(C)[C@H]3CC[C@]12C` [progesterone], in data set [4], the “Active agent by dry weight” value came to 2.7%. Also, in data set [5] (WO00/50007, 1.76 mg/ml using 198 mg of carrier), the “Active loading by dry weight” value is “approximately 1.0%”. For the same compound, the “Maximum concentration in aqueous dispersion” value was 1.76 mg/mL in data set [5] (WO00/50007, using 198 mg of carrier) and 1.76 mg/mL in data set [5] (delivery system of WO00/50007 (Example 47), higher carrier concentration). In addition, the “Turbidity (FNU)” value in data set [6] (setting [9]) is recorded as 34.20† FNU.

As to `O=C(O)C(O)c1ccccc1` (racemic) [Mandelic Acid, DL-Mandelic acid], the “Average Turbidity” value in data set [1] is given as over 150 FNU.

With Laureth-10 [P9769], the “Average Turbidity” value in data set [1] was 14.02 FNU. Moreover, in data set [3], the “Average HLB” value was 13.5.

Turning to `CC(C)CCCCCCCCC[C@@H]1CC(=O)N[C@@H](CCC(=O)O)C(=O)N[C@@H](CC(C)C)C(=O)N[C@H](CC(C)C)C(=O)N[C@@H](C(C)C)C(=O)N[C@@H](CC(=O)O)C(=O)N[C@H](CC(C)C)C(=O)N[C@@H](CC(C)C)C(=O)O1` [Aminofect, Surfactin] (EL[dL]VD[dL]L; linker N-C via X1), the “Average Turbidity” value in data set [1] was 13.16 FNU.

Consider `CCCCCCCC/C=C\CCCCCCCC(=O)[O-].[K+]` [Potassium Oleate, Potassium oleate], for which the “Average Turbidity” value in data set [1] was over 150 FNU.

With `CCCCCCCCCCCCOCCOCCOCCOCCOCCOCCOCCOCCO` [compound 74680, Laureth-8], the “Average Turbidity” value in data set [1] is on record as 131 FNU. For the same compound, in data set [3] (literature or reported), the HLB number is given as 13.1. Besides, in data set [3], the “Average HLB” value is 13.1.

As for `CCCCCCCC(=O)O` [Octanoic Acid, Octanoic acid], the “Average Turbidity” value in data set [1] is reported as over 150 FNU.

Regarding `CCCCCCCCCCCCCCCC(=O)OC[C@H](O)[C@H]1OC(=O)C(O)=C1O` [Ascorbyl palmitate], in data set [6] (setting [9]), the “Turbidity (FNU)” value is reported as 72.4 FNU.

With `CCCCCCCCCC(=O)O` [Capric Acid, Decanoic acid], in data set [1], the “Average Turbidity” value is given as over 150 FNU.

Take `Clc1ccccc1C(c1ccccc1)(c1ccccc1)n1ccnc1` [Clotrimazole]: the “Turbidity (FNU)” value in data set [6] (setting [9]) is given as 10.4 FNU.

`Cc1cc(C2CCCCC2)n(O)c(=O)c1` [Ciclopirox olamine, reference compound]: the “Turbidity (FNU)” value in data set [6] (setting [10]) stood at 10.85 FNU.

For the compound `O=C(OCc1ccccc1)c1cccnc1` [Benzyl nicotinate], the “Turbidity (FNU)” value in data set [6] (setting [11]) was determined as 18.84 FNU.

For the compound `CC1=CCC(O)(C(C)C)CC1` (centres unmarked) [Melaleucol], the “Turbidity (FNU)” value in data set [6] (setting [9]) was 19.4 FNU.

As to `COC(=O)[C@@H]1[C@H]2C[C@H]3c4[nH]c5ccccc5c4CCN3C[C@@H]2CC[C@@H]1O.Cl` [Yohimbine HCl Crystalline], in data set [6] (setting [11]), the “Turbidity (FNU)” value stood at 9.85 FNU.

For `O=C(O)Cc1ccccc1Nc1c(Cl)cccc1Cl` [Diclofenac], the “Turbidity (FNU)” value in data set [6] (setting [9]) amounted to 14.39 FNU.

On to `Cc1cc(CC(C)CC(C)(C)C)n(O)c(=O)c1.NCCO` (centres unmarked) [piroctone olamine], for which, in data set [7], the “Active agent content of concentrated aqueous formulation” value is “at least 9.6 % by weight”. In addition, the “Aqueous solubility with surfactant” value in data set [8] (15% SDS, pH 7, room temperature) is “approximately 2.8%”. The Solubility is recorded as 16.0% in data set [8] (in 1,2-Propyleneglycol); 10.0% in data set [8] (in Ethanol); 1.7% in data set [8] (in Glycerol); 5.0% in data set [8] (in Isopropanol); 1.9% in data set [8] (in PEG-400); 0.05% in data set [8] (in Water).

Consider `C=CCCCCCCCCC(=O)N[C@@H](Cc1ccccc1)C(=O)O` [SepiWhite MSH], for which, in data set [6] (setting [11]), the “Turbidity (FNU)” value stood at 10.43 FNU.

In the case of Vitamin E, in data set [6] (Surf. Protasorb L-20 2.5%, active agent 0.10%), the “Turbidity (FNU)” value is recorded as 29.60 FNU.

Consider `C[C@]12CCC(=O)C=C1CC[C@@H]1[C@@H]2[C@@H](O)C[C@@]2(C)[C@H]1CC[C@]2(O)C(=O)CO` [Hydrocortisone], for which the “Turbidity (FNU)” value in data set [6] (setting [11]) is 10.00 FNU.

As to `CCCCCCCCCCCCCCCC(=O)O` [Palmitic Acid, Hexadecanoic acid], in data set [1], the “Average Turbidity” value is given as over 150 FNU.

Consider `CCCCCCCCCCCCCCOC(=O)[C@@H]1CCC(=O)N1` [Myristidone ®], for which the “Turbidity (FNU)” value in data set [6] (setting [10]) is on record as 58.60 FNU.

Take `O=C(/C=C/c1ccc(O)c(O)c1)O[C@H](Cc1ccc(O)c(O)c1)C(=O)O` [Rosmarinic acid (90%)]: the “Turbidity (FNU)” value in data set [6] (setting [9]) was found to be 31.5 FNU.

For `CCCCCC(=O)O` [Caproic Acid, Hexanoic acid], the “Average Turbidity” value in data set [1] is over 150 FNU.

As to `CCCC(=O)O[C@]1(C(=O)CO)CC[C@H]2[C@@H]3CCC4=CC(=O)CC[C@]4(C)[C@H]3[C@@H](O)C[C@@]21C` [Hydrocortisone-17 butyrate], the “Turbidity (FNU)” value in data set [6] (setting [9]) worked out at 55.9 FNU.

Regarding `Clc1ccc(COC(Cn2ccnc2)c2ccc(Cl)cc2Cl)cc1` (centres unmarked) [Econazole nitrate], in data set [6] (setting [10]), the “Turbidity (FNU)” value amounted to 71.50 FNU.

Take `OCc1cc(C(O)CNCCCCCCOCCCCc2ccccc2)ccc1O` (centres unmarked) [Salmeterol xinafoate]: in data set [6] (setting [11]), the “Turbidity (FNU)” value is listed as 5.49 FNU.

With “Sodium deoxycholate [reference compound]”, the “Average Turbidity” value in data set [1] is given as 32.6 FNU. Further, the “Average HLB” value in data set [3] was 24.

In the case of `CCC(=O)O[C@]1(C(=O)CCl)[C@@H](C)C[C@H]2[C@@H]3CCC4=CC(=O)C=C[C@]4(C)[C@@]3(F)[C@@H](O)C[C@@]21C` [Clobetasol Propionate], the “Turbidity (FNU)” value in data set [6] (setting [9]) was determined as 23.3 FNU.

The values are drawn from patent US20100062067A1, “COMPOSITIONS COMPRISING MACROMOLECULAR ASSEMBLIES OF LIPID AND SURFACTANT” (MALVERN COSMECEUTICS LIMITED, priority 2006, published 2010).
